Test results taken from ChEMBL document CHEMBL1127385, “Synthesis and diuretic activity of alkyl- and arylguanidine analogs of N,N'-dicyclohexyl-4-morpholinecarboxamidine in rats and dogs” (J Med Chem, 1994).

How the values were obtained:
[1] = tested on: Rattus norvegicus; experiment: Ratio of Total electrolytic excretion of sodium and potassium in urine of rats after peroral administration of 239 uM/Kg of drug; format: ADME, organism-based; details: in vivo, po
[2] = tested on: Rattus norvegicus; experiment: Tested for the diuretic activity by measuring the urinary volume after peroral administering 239 uM/Kg of drug in rats; format: ADME, organism-based, Urine; details: in vivo, po
[3] = tested on: Rattus norvegicus; experiment: Tested for the diuretic activity by measuring the urinary volume after peroral administering 23.9 uM/Kg of drug in rats; format: ADME, organism-based, Urine; details: in vivo, po
[4] = tested on: Rattus norvegicus; experiment: Total electrolytic excretion of chlorine in urine of rats after peroral administration of 239 uM/Kg of drug; format: ADME, organism-based; details: in vivo, po
[5] = tested on: Rattus norvegicus; experiment: Total electrolytic excretion of potassium in urine of rats after peroral administration of 239 uM/Kg of drug; format: ADME, organism-based; details: in vivo, po
[6] = tested on: Rattus norvegicus; experiment: Total electrolytic excretion of chlorine in urine of rats after peroral administration of 71.8 uM/Kg of drug; format: ADME, organism-based; details: in vivo, po
[7] = tested on: Rattus norvegicus; experiment: Total electrolytic excretion of sodium in urine of rats after peroral administration of 71.8 uM/Kg of drug; format: ADME, organism-based; details: in vivo, po
[8] = tested on: Rattus norvegicus; experiment: Tested for the diuretic activity by measuring the urinary volume after peroral administering 71.8 uM/Kg of drug in rats; format: ADME, organism-based, Urine; details: in vivo, po
[9] = tested on: Rattus norvegicus; experiment: Ratio of Total electrolytic excretion of sodium and potassium in urine of rats after peroral administration of 23.9 uM/Kg of drug; format: ADME, organism-based; details: in vivo, po
[10] = tested on: Rattus norvegicus; experiment: Total electrolytic excretion of chlorine in urine of rats after peroral administration of 23.9 uM/Kg of drug; format: ADME, organism-based; details: in vivo, po
[11] = tested on: Rattus norvegicus; experiment: Ratio of Total electrolytic excretion of sodium and potassium in urine of rats after peroral administration of 71.8 uM/Kg of drug; format: ADME, organism-based; details: in vivo, po
[12] = tested on: Rattus norvegicus; experiment: Total electrolytic excretion of sodium in urine of rats after peroral administration of 23.9 uM/Kg of drug; format: ADME, organism-based; details: in vivo, po
[13] = tested on: Rattus norvegicus; experiment: Total electrolytic excretion of potassium in urine of rats after peroral administration of 71.8 uM/Kg of drug; format: ADME, organism-based; details: in vivo, po
[14] = tested on: Rattus norvegicus; experiment: Total electrolytic excretion of potassium in urine of rats after peroral administration of 23.9 uM/Kg of drug; format: ADME, organism-based; details: in vivo, po
[15] = tested on: Rattus norvegicus; experiment: Total electrolytic excretion of sodium in urine of rats after peroral administration of 239 uM/Kg of drug; format: ADME, organism-based; details: in vivo, po
[16] = tested on: Canis familiaris; experiment: Total electrolytic excretion of sodium in urine of dogs after peroral administration of 3.40 uM/Kg of drug; format: ADME, organism-based, Canis lupus familiaris; details: dog, in vivo, po
[17] = tested on: Rattus norvegicus; experiment: Tested for the diuretic activity by measuring the urinary volume after peroral administering 1.01 uM/Kg of drug in rats; format: ADME, organism-based, Urine; details: in vivo, po
[18] = tested on: Canis familiaris; experiment: Total electrolytic excretion of chlorine in urine of dogs after peroral administration of 3.40 uM/Kg of drug; format: ADME, organism-based, Canis lupus familiaris; details: dog, in vivo, po
[19] = tested on: Rattus norvegicus; experiment: Total electrolytic excretion of chlorine in urine of rats after peroral administration of 0 uM/Kg of drug; format: ADME, organism-based; details: in vivo, po
[20] = tested on: Rattus norvegicus; experiment: Total electrolytic excretion of sodium in urine of rats after peroral administration of 1.01 uM/Kg of drug; format: ADME, organism-based; details: in vivo, po
[21] = tested on: Rattus norvegicus; experiment: Total electrolytic excretion of sodium in urine of rats after peroral administration of 34.0 uM/Kg of drug; format: ADME, organism-based; details: in vivo, po
[22] = tested on: Canis familiaris; experiment: Tested for the diuretic activity by measuring the urinary volume after peroral administering 10.1 uM/Kg of drug in dogs; format: ADME, organism-based, Canis lupus familiaris, Urine; details: dog, in vivo, po
[23] = organism: Canis familiaris; details: dog, in vivo, po
Description: Total electrolytic excretion of potassium in urine of dogs after peroral administration of 10.1 uM/Kg of drug

[24] = tested on: Canis familiaris; experiment: Tested for the diuretic activity by measuring the urinary volume after peroral administering 3.40 uM/Kg of drug in dogs; format: ADME, organism-based, Canis lupus familiaris, Urine; details: dog, in vivo, po
[25] = tested on: Rattus norvegicus; experiment: Total electrolytic excretion of sodium in urine of rats after peroral administration of 0 uM/Kg of drug; format: ADME, organism-based; details: in vivo, po
[26] = tested on: Rattus norvegicus; experiment: Total electrolytic excretion of chlorine in urine of rats after peroral administration of 3.40 uM/Kg of drug; format: ADME, organism-based; details: in vivo, po
[27] = tested on: Rattus norvegicus; experiment: Total electrolytic excretion of potassium in urine of rats after peroral administration of 0 uM/Kg of drug; format: ADME, organism-based; details: in vivo, po
[28] = tested on: Rattus norvegicus; experiment: Tested for the diuretic activity by measuring the urinary volume after peroral administering 0 uM/Kg of drug in rats; format: ADME, organism-based, Urine; details: in vivo, po
[29] = tested on: Rattus norvegicus; experiment: Total electrolytic excretion of potassium in urine of rats after peroral administration of 34.0 uM/Kg of drug; format: ADME, organism-based; details: in vivo, po
[30] = tested on: Rattus norvegicus; experiment: Total electrolytic excretion of chlorine in urine of rats after peroral administration of 34.0 uM/Kg of drug; format: ADME, organism-based; details: in vivo, po
[31] = tested on: Rattus norvegicus; experiment: Total electrolytic excretion of potassium in urine of rats after peroral administration of 3.40 uM/Kg of drug; format: ADME, organism-based; details: in vivo, po
[32] = tested on: Rattus norvegicus; experiment: Tested for the diuretic activity by measuring the urinary volume after peroral administering 34.0 uM/Kg of drug in rats; format: ADME, organism-based, Urine; details: in vivo, po
[33] = tested on: Rattus norvegicus; experiment: Total electrolytic excretion of sodium in urine of rats after peroral administration of 3.40 uM/Kg of drug; format: ADME, organism-based; details: in vivo, po
[34] = tested on: Rattus norvegicus; experiment: Tested for the diuretic activity by measuring the urinary volume after peroral administering 10.1 uM/Kg of drug in rats; format: ADME, organism-based, Urine; details: in vivo, po
[35] = tested on: Rattus norvegicus; experiment: Tested for the diuretic activity by measuring the urinary volume after peroral administering 3.40 uM/Kg of drug in rats; format: ADME, organism-based, Urine; details: in vivo, po
[36] = tested on: Rattus norvegicus; experiment: Total electrolytic excretion of potassium in urine of rats after peroral administration of 1.01 uM/Kg of drug; format: ADME, organism-based; details: in vivo, po
[37] = organism: Rattus norvegicus; details: in vivo, po
Description: Total electrolytic excretion of potassium in urine of rats after peroral administration of 10.1 uM/Kg of drug

[38] = tested on: Canis familiaris; experiment: Total electrolytic excretion of potassium in urine of dogs after peroral administration of 3.40 uM/Kg of drug; format: ADME, organism-based, Canis lupus familiaris; details: dog, in vivo, po

Structure (SMILES): FC(F)(F)c1cccc(N/C(=N/C2CCCCC2)N2CCOCC2)c1
- Ratio [1]: 4.5
- V [2]: 14 mL
- V [3]: 6.6 mL
- Excretion Cl- [4]: 2.03 m equiv
- Excretion K+ [5]: 0.45 m equiv
- Excretion Cl- [6]: 1.59 m equiv
- Excretion Na+ [7]: 1.46 m equiv
- V [8]: 9.5 mL
- Ratio [9]: 2.6
- Excretion Cl- [10]: 1.17 m equiv
- Ratio [11]: 4.6
- Excretion Na+ [12]: 1.02 m equiv
- Excretion K+ [13]: 0.32 m equiv
- Excretion K+ [14]: 0.39 m equiv
- Excretion Na+ [15]: 2.02 m equiv

Structure (SMILES): NS(=O)(=O)c1cc2c(cc1Cl)NCNS2(=O)=O [HYDROCHLOROTHIAZIDE]
- Excretion Na+ [16]: 16.1 m equiv
- V [17]: 6.8 mL
- Excretion Cl- [18]: 17.3 m equiv
- Excretion Cl- [19]: 0.8 m equiv
- Excretion Na+ [20]: 1.36 m equiv
- Excretion Na+ [21]: 2.03 m equiv
- V [22]: 85 mL
- Excretion K+ [23]: 3.4 m equiv
- V [24]: 76 mL
- Excretion Na+ [25]: 0.82 m equiv
- Excretion Cl- [26]: 1.91 m equiv
- Excretion K+ [27]: 0.27 m equiv
- V [28]: 4.4 mL
- Excretion K+ [29]: 0.4 m equiv
- Excretion Cl- [30]: 2.17 m equiv
- Excretion K+ [31]: 0.39 m equiv
- V [32]: 11.3 mL
- Excretion Na+ [33]: 1.79 m equiv
- V [34]: 10.2 mL
- V [35]: 10 mL
- Excretion K+ [36]: 0.32 m equiv
- Excretion K+ [37]: 0.37 m equiv
- Excretion K+ [38]: 3.3 m equiv
